In US12162858B2, “Quinoline derivatives as inhibitors of AXL/MER RTK and CSF1R” (QURIENT CO., LTD., priority 2018, dated 2024) one finds IC50 data, which are given here for 44 molecules.

This experiment concerns the target T1, Axl (Homo sapiens, UniProt P30530).
T1 sequence (P30530 26-894): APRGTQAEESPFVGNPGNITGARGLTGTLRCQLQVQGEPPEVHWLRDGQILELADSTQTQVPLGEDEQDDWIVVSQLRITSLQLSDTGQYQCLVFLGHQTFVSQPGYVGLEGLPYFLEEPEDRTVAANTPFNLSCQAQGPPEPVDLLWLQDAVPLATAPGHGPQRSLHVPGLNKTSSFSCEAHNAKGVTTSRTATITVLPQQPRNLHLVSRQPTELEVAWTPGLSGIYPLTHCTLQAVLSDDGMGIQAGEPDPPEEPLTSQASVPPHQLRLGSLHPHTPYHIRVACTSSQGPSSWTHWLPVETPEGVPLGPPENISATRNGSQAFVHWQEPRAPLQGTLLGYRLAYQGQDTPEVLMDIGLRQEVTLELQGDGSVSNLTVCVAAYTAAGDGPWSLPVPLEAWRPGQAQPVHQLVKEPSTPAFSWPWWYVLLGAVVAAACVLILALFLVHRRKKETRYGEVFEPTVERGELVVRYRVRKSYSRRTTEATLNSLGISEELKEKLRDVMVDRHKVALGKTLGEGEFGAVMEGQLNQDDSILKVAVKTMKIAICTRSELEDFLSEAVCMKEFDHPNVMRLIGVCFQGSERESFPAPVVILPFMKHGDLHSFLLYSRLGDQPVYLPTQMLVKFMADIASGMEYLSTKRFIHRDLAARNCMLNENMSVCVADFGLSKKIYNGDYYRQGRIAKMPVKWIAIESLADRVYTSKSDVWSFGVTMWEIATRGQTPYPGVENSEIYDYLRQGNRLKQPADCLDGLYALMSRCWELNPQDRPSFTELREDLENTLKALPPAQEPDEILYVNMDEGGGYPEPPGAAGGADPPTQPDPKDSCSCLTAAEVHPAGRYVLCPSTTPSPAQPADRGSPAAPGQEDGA
Put plainly: Cellular Axl inhibition ELISA (p-Axl, Gas6-induced) using H1299 cells. It is filed as cell-based. More on the design: especially H1299 cell endogenously expresses Axl; endogenous in cells; host or cells: H1299. Particulars: read-out: Cellular Axl activity by H1299 Elisa (IC50). The method, then: Axl is expressed in several of malignant cancer cells; especially H1299 cell endogenously expresses Axl; and an increased phosphorylation of Axl (p-Axl) can be observed, when induced by the Axl ligand, Ga6.
The H1299 cells should be 40-80% confluent in the cell culture flask. Then cells are washed with DPBS and trypsinized. After centrifugation, the cell pellet is re-suspended with pre-warmed culture medium (RPMI1640, 10% FBS) and cells are separated by pipetting 6 times up and down with a 10 ml serological pipette. The cell suspension was diluted to a final concentration of 1.25×10^5 cells/ml. Then 80 μl/well cell suspension is added to the plate. Cell-plates are incubated at 37° C./5% CO2 overnight. Compounds were dissolved by DMSO to 10 mM, and kept in nitrogen cabinet. Prepare the compounds stock plate, the reference compounds concentration starts at 0.50 mM (5 μl+95 μl DMSO), and the tested compounds start at 1.5 mM (6 μl+34 μl DMSO); Then make a 3-fold dilution series (10 doses) compounds. Then dilute compounds by the medium in the mid plate (2 μl compounds+198 μl medium). Transfer 20 μl diluted compounds from mid plate to the cell coated plate. Cell-plates are incubated at 37° C./5% CO2 for 24 h. Add 25 μl of Human Gas6 (1000 ng/ml) to 96-well plate; the final concentration of Human Gas6 is 200 ng/ml. Incubate the plates at 37° C./5% CO2 for 1 h. Remove medium and wash cells once with 300 ul/well ice-cold 1×PBS. Then remove PBS and add 100 μl/well ice-cold 1× Cell Lysis Buffer to 96-well plate. The plate is shaken for 40 min at 4° C. Then plates can be stored at −20° C. After the micro-wells strips have reached room temperature, break off the required number of micro-wells. Place the micro-wells in the strip holder. Unused micro-wells must be resealed and stored at 4° C. immediately. Add 60 μl of cell lysate to the appropriate well. Seal with tape and press firmly onto top of micro-wells. Incubate the plate at 37° C. for 2 h. Gently remove the tape and wash wells 5 times with 1× Wash Buffer, 300 μl each time for each well. Add 100 μl of reconstituted Detection Antibody (green color) to each well. Seal with tape and incubate the plate at 37° C. for 1 h. Repeat wash procedure. Add 100 μl of reconstituted HRP Linked secondary antibody to each well. Seal with tape and incubate the plate at 37° C. for 30 min. Repeat wash procedure. Add 100 μl of TMB Substrate to each well. Seal with tape and incubate the plate at 37° C. for 15 min. Add 100 μl of STOP Solution to each well. Shake gently for a few seconds. Read absorbance at 450 nm within 30 min after adding STOP Solution. Calculations and Formulas: The following calculations and formulas are used for data analysis using XL Fit software: The curve fitting was made using the Sigmoidal Dose-Response Model (Fit model, 205).
(In general: An ELISA detects its analyte on a solid surface through an enzyme-linked reagent.)
The term IC50 denotes the point on the concentration scale where inhibition reaches its midpoint. As for `CCn1nc(C(=O)Nc2ccc(Oc3ccnc4cc(OC)c(OC)cc34)cn2)c(OCC(F)(F)F)c1C` [Compound 1], the IC50 was under 500 nM. In the case of `COc1cc2nccc(Oc3ccc(NC(=O)c4nn(C(C)C)c(C)c4OCC(F)(F)F)nc3)c2cc1OC` [Compound 2] it was under 500 nM. Take `COc1cc2nccc(Oc3ccc(NC(=O)c4nn(C5CC5)c(C(C)=O)c4OCC(F)(F)F)nc3)c2cc1OC` [Compound 3]: the IC50 is under 500 nM. In the case of `COc1cc2nccc(Oc3ccc(NC(=O)c4nn(C5CCOC5)cc4OCC(F)(F)F)nc3)c2cc1OC` (centres unmarked) [Compound 13] it was under 500 nM; in that of `CCCn1cc(OCCF)c(C(=O)Nc2ccc(Oc3ccnc4cc(OC)c(OC)cc34)cn2)n1` [Compound 14], under 500 nM.

For `CCCn1cc(OCCC(O)CO)c(C(=O)Nc2ccc(Oc3ccnc4cc(OC)c(OC)cc34)cn2)n1` (centres unmarked) [Compound 15], the IC50 was at least 1000 nM. In the case of `COc1cc2nccc(Oc3ccc(NC(=O)c4nn(CC(C)O)cc4OCC(F)(F)F)nc3)c2cc1OC` (centres unmarked) [Compound 17] it was under 500 nM; in that of `COc1cc2nccc(Oc3ccc(NC(=O)c4nn(CCCO)cc4OCC(F)(F)F)nc3)c2cc1OC` [Compound 18], under 500 nM; in that of `COc1cc2nccc(Oc3ccc(NC(=O)c4nn(CC(C)=O)cc4OCC(F)(F)F)nc3)c2cc1OC` [Compound 19], under 500 nM. For `CCC(=O)n1cc(OCC(F)(F)F)c(C(=O)Nc2ccc(Oc3ccnc4cc(OC)c(OC)cc34)cn2)n1` [Compound 20], the IC50 is under 500 nM. With `COc1cc2nccc(Oc3ccc(NC(=O)c4nn(CC(C)C)cc4OCC(F)(F)F)nc3)c2cc1OC` [Compound 21] the figure was under 500 nM. Regarding `COc1cc2nccc(Oc3ccc(NC(=O)c4nn(C(C)(C)C)cc4OCC(F)(F)F)nc3)c2cc1OC` [Compound 22], the IC50 is under 500 nM. With `CCCn1cc(NCC(F)(F)F)c(C(=O)Nc2ccc(Oc3ccnc4cc(OC)c(OC)cc34)cn2)n1` [Compound 23], the IC50 was under 500 nM. With `COc1cc2nccc(Oc3ccc(NC(=O)c4nn(C5CCC5)cc4OCC(F)(F)F)nc3)c2cc1OC` [Compound 24] the figure was under 500 nM; with `CCCn1cc(OCC(F)(F)F)c(C(=O)Nc2ccc(Oc3ccnc4cc(OC)c(OC)cc34)c(F)c2)n1` [Compound 25], under 500 nM. In the case of `CCCn1cc(OCC(F)(F)F)c(C(=O)Nc2ccc(Oc3ccnc4cc(OC)c(OC)cc34)c(C)c2)n1` [Compound 26] it was under 500 nM. With `CCCn1cc(OCC(F)(F)F)c(C(=O)Nc2ccc(Oc3ccnc4cc(OC)c(OC)cc34)cc2C)n1` [Compound 27] the figure was under 500 nM; with `CCCn1cc(OCC(F)(F)F)c(C(=O)Nc2ccc(Oc3ccnc4cc(OC)c(OC)cc34)cc2F)n1` [Compound 28], under 500 nM; with `COc1cc2nccc(Oc3ccc(NC(=O)c4nn(C[C@@H](C)O)cc4OCC(F)(F)F)nc3)c2cc1OC` [Compound 29], under 500 nM.

Regarding `COc1cc2nccc(Oc3ccc(NC(=O)c4nn(C[C@H](C)O)cc4OCC(F)(F)F)nc3)c2cc1OC` [Compound 30], the IC50 is under 500 nM. In the case of `CCCn1cc(OCCC(F)(F)F)c(C(=O)Nc2ccc(Oc3ccnc4cc(OC)c(OC)cc34)cn2)n1` [Compound 31] it was under 500 nM; in that of `CCCn1cc(OCC(F)(F)F)c(C(=O)Nc2ccc(Oc3ccnc4cc(OC)c(OC)cc34)nn2)n1` [Compound 32], under 500 nM; in that of `COc1cc2nccc(Oc3ccc(NC(=O)c4nn(C)cc4OCC(F)(F)F)nc3)c2cc1OC` [Compound 33], under 500 nM. In the case of `CCCn1cc(N(C)CC2CCOCC2)c(C(=O)Nc2ccc(Oc3ccnc4cc(OC)c(OC)cc34)cn2)n1` [Compound 34] it was at least 1000 nM; in that of `CCCn1cc(OC(C)C)c(C(=O)Nc2ccc(Oc3ccnc4cc(OC)c(OC(F)(F)F)cc34)c(F)c2)n1` [Compound 35], at least 1000 nM.

For `CCCCn1cc(OCC(F)(F)F)c(C(=O)Nc2ccc(Oc3ccnc4cc(OC)c(OC)cc34)cn2)n1` [Compound 36], the IC50 is under 500 nM. With `COc1cc2nccc(Oc3ccc(NC(=O)c4nn(C)cc4OCC(F)(F)F)cc3C)c2cc1OC` [Compound 37], the IC50 is at least 1000 nM.

`CCCn1cc(OCC(F)(F)F)c(C(=O)Nc2ccc(Oc3ccnc4cc(OC)c(OC)cc34)cc2)n1` [Compound 38]: the IC50 was under 500 nM. In the case of `COc1cc2nccc(Oc3ccc(NC(=O)c4nn(CCC#N)cc4OCC(F)(F)F)nc3)c2cc1OC` [Compound 39] it was under 500 nM. For `COc1cc2nccc(Oc3ccc(NC(=O)c4nn(C5CCCC5)cc4OCC(F)(F)F)nc3)c2cc1OC` [Compound 40], the IC50 is under 500 nM. In the case of `COc1cc2nccc(Oc3ccc(NC(=O)c4nn(CC5CC5)cc4OCC(F)(F)F)nc3)c2cc1OC` [Compound 41] it was under 500 nM; in that of `COc1cc2nccc(Oc3ccc(NC(=O)c4nn(CC5CCC5)cc4OCC(F)(F)F)nc3)c2cc1OC` [Compound 42], under 500 nM; in that of `COc1cc2nccc(Oc3ccc(NC(=O)c4nn(CC5CCCCC5)cc4OCC(F)(F)F)nc3)c2cc1OC` [Compound 43], under 500 nM.

Regarding `COc1cc2nccc(Oc3ccc(NC(=O)c4nn(CC5CCOC5)cc4OCC(F)(F)F)nc3)c2cc1OC` (centres unmarked) [Compound 44], the IC50 was under 500 nM. With `COc1cc2nccc(Oc3ccc(NC(=O)c4nn(C)cc4OCC(F)(F)F)c(F)c3)c2cc1OC` [Compound 45] the figure was 500 to 1000 nM; with `COc1cc2nccc(Oc3ccc(NC(=O)c4nn(CCO)cc4OCC(F)(F)F)c(F)c3)c2cc1OC` [Compound 46], under 500 nM. Consider `COc1cc2nccc(Oc3ccc(NC(=O)c4nn(C5CCCC5)cc4OCC(F)(F)F)c(F)c3)c2cc1OC` [Compound 47], for which the IC50 was under 500 nM. Regarding `COc1cc2nccc(Oc3ccc(NC(=O)c4nn(CC(C)C)cc4OCC(F)(F)F)c(F)c3)c2cc1OC` [Compound 48], the IC50 was under 500 nM. With `COCCn1cc(OCC(F)(F)F)c(C(=O)Nc2ccc(Oc3ccnc4cc(OC)c(OC)cc34)cc2F)n1` [Compound 49] the figure was under 500 nM; with `COc1cc2nccc(Oc3ccc(NC(=O)c4nn(C)cc4OCC(F)(F)F)cc3F)c2cc1OC` [Compound 50], under 500 nM.

On to `COc1cc2nccc(Oc3ccc(NC(=O)c4nn(CCO)cc4OCC(F)(F)F)cc3F)c2cc1OC` [Compound 51], for which the IC50 is under 500 nM. In the case of `COc1cc2nccc(Oc3ccc(NC(=O)c4nn(C5CCCC5)cc4OCC(F)(F)F)cc3F)c2cc1OC` [Compound 52] it was under 500 nM; in that of `COc1cc2nccc(Oc3ccc(NC(=O)c4nn(CC(C)C)cc4OCC(F)(F)F)cc3F)c2cc1OC` [Compound 53], under 500 nM; in that of `COCCn1cc(OCC(F)(F)F)c(C(=O)Nc2ccc(Oc3ccnc4cc(OC)c(OC)cc34)c(F)c2)n1` [Compound 54], under 500 nM.
